From US12060347B2 (BRISTOL-MYERS SQUIBB COMPANY, priority 2016, dated 2024)

What follows are compounds tested against T1, human PAR4 (Homo sapiens, UniProt Q96RI0) (assay: PAR4 FLIPR assay: antagonism of agonist-peptide-induced calcium mobilization in PAR4-expressing HEK293 cells). Conditions: H-Ala-Phe(4-F)-[…]NH2-induced intracellular calcium mobilization, 11-point curves.
T1 construct: expressed in transfected cells; host or cells: HEK293 PAR4 Clone 1.2A (BMS Arctic ID 383940)
T1 sequence (Q96RI0 18-385): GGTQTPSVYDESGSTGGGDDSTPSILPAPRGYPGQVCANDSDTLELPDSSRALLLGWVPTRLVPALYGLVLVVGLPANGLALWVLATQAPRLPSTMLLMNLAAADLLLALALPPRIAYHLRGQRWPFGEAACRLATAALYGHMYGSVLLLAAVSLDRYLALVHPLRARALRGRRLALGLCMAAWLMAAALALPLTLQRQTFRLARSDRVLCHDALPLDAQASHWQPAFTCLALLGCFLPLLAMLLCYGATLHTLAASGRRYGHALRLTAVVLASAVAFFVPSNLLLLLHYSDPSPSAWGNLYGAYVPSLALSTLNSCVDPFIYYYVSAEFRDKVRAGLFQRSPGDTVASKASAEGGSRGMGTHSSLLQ
Assay type: cell-based
With `COc1cnc2c(-c3nc4c(Cl)c(F)c(O[C@@H](C)[C@@H](C)OC(=O)Nc5cncc(C#N)c5)cc4s3)cc(Cl)cc2c1` [Example 802, (2R,3S)-3-((4-chloro-2-(6-chloro-3-methoxyquinolin-8-yl)-5-fluorobenzo[d]thiazol-6-yl)oxy)butan-2-yl (5-cyanopyridin-3-yl)carbamate] the IC50 was 2 nM. Work on `COc1cncc(NC(=O)O[C@H](C)[C@H](C)Oc2cc3sc(-c4cc(Cl)cc5cc(OC)cnc45)nc3c(Cl)c2F)c1` [Example 803, (2R,3S)-3-((4-chloro-2-(6-chloro-3-methoxyquinolin-8-yl)-5-fluorobenzo[d]thiazol-6-yl)oxy)butan-2-yl (5-methoxypyridin-3-yl)carbamate] yielded an IC50 of 3.5 nM. For `COc1cnc2c(-c3nc4c(Cl)c(F)c(O[C@@H](C)[C@@H](C)OC(=O)Nc5cncc(F)c5)cc4s3)cc(C)cc2c1` [Example 804, (2R,3S)-3-((4-chloro-5-fluoro-2-(3-methoxy-6-methylquinolin-8-yl)benzo[d]thiazol-6-yl)oxy)butan-2-yl (5-fluoropyridin-3-yl)carbamate], the IC50 was 2.8 nM. In the case of `COc1cnc2c(-c3nc4c(C(O)C(C)(C)C)cc(F)cc4s3)cc(C)cc2n1` (centres unmarked) [Example 806, 1-(6-fluoro-2-(2-methoxy-7-methylquinoxalin-5-yl)benzo[d]thiazol-4-yl)-2,2-dimethylpropan-1-ol], the IC50 is reported as 6.6 nM. For `COc1cnc2c(-c3nc4c(C(O)C(C)(C)C)cc(OC)nc4s3)cc(C)cc2n1` (centres unmarked) [Example 807, 1-(5-methoxy-2-(2-methoxy-7-methylquinoxalin-5-yl)thiazolo[5,4-b]pyridin-7-yl)-2,2-dimethylpropan-1-ol], the IC50 was 2.6 nM. Work on `COCc1cc(OC)cc2sc(-c3cc(C)cc4nc(OC)cnc34)nc12` [Example 808, 6-methoxy-2-(2-methoxy-7-methylquinoxalin-5-yl)-4-(methoxymethyl)benzo[d]thiazole] yielded an IC50 of 2 nM. In the case of `COc1cnc2c(-c3nc4cnccc4s3)cc(C)cc2n1` [Example 809, 2-(2-methoxy-7-methylquinoxalin-5-yl)thiazolo[4,5-c]pyridine], the IC50 is reported as 54 nM. Work on `COc1cnc2c(-c3nc4cc(F)c(OCCOC(=O)Nc5cccnc5)nc4s3)cc(C)cc2n1` [Example 810, 2-((6-fluoro-2-(2-methoxy-7-methylquinoxalin-5-yl)thiazolo[5,4-b]pyridin-5-yl)oxy)ethyl pyridin-3-ylcarbamate] yielded an IC50 of 6.9 nM. In the case of `COc1cnc2c(-c3nc4cc(F)c(OCCOC(=O)Nc5cnc(F)c(C)c5)nc4s3)cc(C)cc2n1` [Example 811, 2-((6-fluoro-2-(2-methoxy-7-methylquinoxalin-5-yl)thiazolo[5,4-b]pyridin-5-yl)oxy) ethyl (6-fluoro-5-methylpyridin-3-yl)carbamate], the IC50 is reported as 1.5 nM. With `COc1cnc2c(-c3nc4c(C)cc(OCCOC(=O)Nc5ccc(-c6cccs6)nc5)nc4s3)cc(C)cc2n1` [Example 812, 2-((2-(2-methoxy-7-methylquinoxalin-5-yl)-7-methylthiazolo[5,4-b]pyridin-5-yl)oxy) ethyl (6-(thiophen-2-yl)pyridin-3-yl)carbamate] the IC50 was 7 nM. Work on `CCOc1cnc2c(-c3nc4cc(F)c(OC[C@@H](C)OC(=O)Nc5cnc(C)nc5)nc4s3)cc(C)cc2n1` [Example 813, (R)-1-((2-(2-ethoxy-7-methylquinoxalin-5-yl)-6-fluorothiazolo[5,4-b]pyridin-5-yl)oxy)propan-2-yl (2-methylpyrimidin-5-yl)carbamate] yielded an IC50 of 1 nM. Work on `CCOc1cnc2c(-c3nc4cc(F)c(OC[C@@H](C)OC(=O)Nc5cnc(OCCO)nc5)nc4s3)cc(C)cc2n1` [Example 814, (R)-1-((2-(2-ethoxy-7-methylquinoxalin-5-yl)-6-fluorothiazolo[5,4-b]pyridin-5-yl)oxy)propan-2-yl (2-(2-hydroxyethoxy)pyrimidin-5-yl)carbamate] yielded an IC50 of 7.2 nM. With `CCOc1cnc2c(-c3nc4cc(F)c(OC[C@@H](C)OC(=O)Nc5cnc(OC[C@@H](C)O)nc5)nc4s3)cc(C)cc2n1` [Example 815, (R)-1-((2-(2-ethoxy-7-methylquinoxalin-5-yl)-6-fluorothiazolo[5,4-b]pyridin-5-yl)oxy) propan-2-yl (2-((R)-2-hydroxypropoxy)pyrimidin-5-yl)carbamate] the IC50 was 6.4 nM. `CCOc1cnc2c(-c3nc4cc(F)c(O[C@@H](C)[C@@H](C)OC(=O)Nc5cnc(CO)nc5)nc4s3)cc(C)cc2n1` [Example 816] showed an IC50 of 10 nM. Compound `CCOc1cnc2c(-c3nc4c(C(O)C(C)(C)C)cc(OC)cc4s3)cc(C)cc2n1` (centres unmarked) [Example 817, 1-(2-(2-ethoxy-7-methylquinoxalin-5-yl)-6-methoxybenzo[d]thiazol-4-yl)-2,2-dimethylpropan-1-ol] has an IC50 of 3.6 nM. `COc1cnc2c(-c3nc4cc(F)c(OC[C@@H](C)OC(=O)Nc5ccc(C#N)nc5)cc4s3)cc(C#N)cc2n1` [Example 818, (R)-1-((2-(7-cyano-2-methoxyquinoxalin-5-yl)-5-fluorobenzo[d]thiazol-6-yl)oxy)propan-2-yl (6-cyanopyridin-3-yl)carbamate] showed an IC50 of 1.8 nM. With `COc1cnc2c(-c3nc4cc(F)c(OC[C@@H](C)OC(=O)Nc5cnc(C)nc5)cc4s3)cc(C#N)cc2n1` [Example 819, (R)-1-((2-(7-cyano-2-methoxyquinoxalin-5-yl)-5-fluorobenzo[d]thiazol-6-yl)oxy)propan-2-yl (2-methylpyrimidin-5-yl)carbamate] the IC50 was 1.2 nM. For `COc1cnc2c(-c3nc4cc(F)c(O[C@@H](C)[C@@H](C)OC(=O)Nc5cnc(OC)nc5)cc4s3)cc(Cl)cc2n1` [Example 820, (2R,3S)-3-((2-(7-chloro-2-methoxyquinoxalin-5-yl)-5-fluorobenzo[d]thiazol-6-yl)oxy)butan-2-yl (2-methoxypyrimidin-5-yl)carbamate], the IC50 was 1.7 nM. For `COc1ccc(NC(=O)O[C@H](C)[C@H](C)Oc2cc3sc(-c4cc(Cl)cc5nc(OC)cnc45)nc3cc2F)cn1` [Example 821, (2R,3S)-3-((2-(7-chloro-2-methoxyquinoxalin-5-yl)-5-fluorobenzo[d]thiazol-6-yl)oxy)butan-2-yl (6-methoxypyridin-3-yl)carbamate], the IC50 was 4.6 nM. Work on `COc1cnc2c(-c3nc4cc(F)c(O[C@@H](C)[C@@H](C)OC(=O)Nc5ccc(C)nc5)cc4s3)cc(Cl)cc2n1` [Example 822, (2R,3S)-3-((2-(7-chloro-2-methoxyquinoxalin-5-yl)-5-fluorobenzo[d]thiazol-6-yl)oxy)butan-2-yl (6-methylpyridin-3-yl)carbamate] yielded an IC50 of 1.6 nM. `COc1cnc2c(-c3nc4cc(F)c(O[C@@H](C)[C@@H](C)OC(=O)Nc5ccc(C)nc5)cc4s3)cc(C#N)cc2n1` [Example 823, (2R,3S)-3-((2-(7-cyano-2-methoxyquinoxalin-5-yl)-5-fluorobenzo[d]thiazol-6-yl)oxy)butan-2-yl (6-methylpyridin-3-yl)carbamate] showed an IC50 of 5.1 nM. `COc1cnc2c(-c3nc4cc(F)c(O[C@@H](C)[C@@H](C)OC(=O)Nc5cnc(C)nc5)cc4s3)cc(Cl)cc2n1` [Example 824, (2R,3S)-3-((2-(7-chloro-2-methoxyquinoxalin-5-yl)-5-fluorobenzo[d]thiazol-6-yl)oxy)butan-2-yl (2-methylpyrimidin-5-yl)carbamate] gave an IC50 of 1.5 nM. Compound `COc1cnc2c(-c3nc4cc(F)c(O[C@@H](C)[C@@H](C)OC(=O)Nc5cnc(C)nc5)cc4s3)cc(C#N)cc2n1` [Example 825, (2R,3S)-3-((2-(7-cyano-2-methoxyquinoxalin-5-yl)-5-fluorobenzo[d]thiazol-6-yl)oxy)butan-2-yl (2-methylpyrimidin-5-yl)carbamate] has an IC50 of 8 nM.
